In general, IC50 refers to the concentration that gives 50% inhibition.

The test system of assay [1] is human platelets (platelet rich plasma), ADP-induced aggregation. The assay can be described thus: In vitro test for inhibition of human platelet aggregation induced by ADP. It is filed as cell-based. The conditions noted are these: Platelet. The text has this: I.a. In vitro Test for Inhibition of Human Platelet Aggregation Induced by ADP
Addition of adenosine diphosphate (ADP) to human platelet rich plasma (PRP) in vitro induces platelet aggregation. This aggregation can be assessed by measuring the optical density (OD) of the PRP. The in vitro test described here was used to determine the inhibitory activity of a test compound on the ADP-induced aggregation of human platelets. A micro plate reader is used to measure the activity of several compounds simultaneously.
(§1) An alternative vehicle is 0.9% NaCl in MQ H2O. The compound solution (either in MQ H2O or 0.9% NaCl in MQ H2O) is further diluted in 0.9% NaCl in MQ H2O.
Free-flowing blood (at least 100 mL) is taken from a healthy volunteer and collected in 0.1 volume 3.8% sodium citrate. 2H2O in distilled H2O (w/v). The final concentration is 0.38% sodium citrate.
The citrated blood is centrifuged at 1,600 N/kg (160 g) at RT. After 15 min, centrifugation is discontinued with the brake turned off and the supernatant (=PRP) is collected. • 2. ADP (Kordia/Chrono-par # 384). Before use, a solution of 50 μM in 0.9% NaCl is prepared. Equipment • 1. Sysmex blood cell counter model KX-21. • 2. Labsystems iEMS reader MF with a 620 nm filter, an orbital shaker set at 1,000 rpm and a constant temperature of 37° C. Absorption is measured with the Labsystems iEMS program. • 3. Blood collection system 600 mL with needle, art P4203 (NPBI). • 4. 96 wells flat bottom micro plates (Greiner Labortechnik). Procedure
The platelets in the supernatant (PRP) are counted using a Sysmex blood cell counter and the supernatant is diluted with PPP to obtain a PRP containing 400,000±50,000 plt/μL. PRP should stabilize at RT for at least 20 min but not longer than 3 h.
150 μL PRP is pipetted into a well of the micro plate. 30 μL test compound in a range of concentrations (7 concentrations per compound) or vehicle is added and the micro plate is placed in the Labsystems iEMS reader MF at 37° C. The optical density (OD620) is then measured at 620 nm. After shaking for 2 min in the reader (1,000 rpm), the OD is measured for the second time. This is to verify the stability of the platelets (absence of spontaneous platelet aggregation). Then, 20 μL of 50 μM ADP solution is added and the OD is kinetically measured every min for 14 min at 620 nm (FIG. 1). Between two measurements, the plate is shaking for 40 seconds at 1,000 rpm. Each test compound is investigated in at least 2 experiments using PRP from different volunteers.
The mean OD at each compound concentration (including vehicle) is calculated at t=0 min and t=10 min. The percentage inhibition at each concentration is calculated using the formula: […]
The IC50 of the test compound is the concentration of the test compound at which the ADP-induced platelet aggregation is reduced by 50%. For this, the percentage inhibition values are plotted against compound concentration. Then, IC50, nH (Hill slope) and efficacy of the test compound is calculated using Graphpad Prism 3.0 (with variable slope).
Reference: Salmon, D. M. (1996) Thrombosis Research 84, 213-216.

Assay [2] concerns washed human platelets, TRAP-induced aggregation. Kind of assay: In vitro test for inhibition of human platelet aggregation induced by TRAP. As to conditions: Platelet. Type of assay: cell-based.
Excerpt: I.b. In vitro Test for Inhibition of Human Platelet Aggregation Induced by TRAP
Introduction: Addition of trombin receptor agonist peptide (TRAP) to washed human platelets (WPL) in vitro induces platelet aggregation. This aggregation can be determined by measuring the optical density of the WPL. The in vitro test described here is used to analyze the activity of a test compound to inhibit TRAP-induced aggregation of human platelets. A micro plate reader is used to measure the activity of several compounds simultaneously.
as §1
Free-flowing blood (at least 100 mL) is taken from a healthy volunteer and collected in 0.1 volume 3.8% sodium citrate. 2H2O in MQ H2O (w/v). The final concentration is 0.38% sodium citrate. The citrated blood is centrifuged at 1,600 N/kg (160 g) in Hettich Rotanta/AP centrifuge (750 rpm) at RT. After 15 min, centrifugation is discontinued with the brake turned off and the supernatant (=PRP) is collected. • 2. Washed platelets (WPL):
After adding freshly made 1 μL PGI2 solution per ml PRP, the suspension is centrifuged at 13,500 N/kg (1,350 g) for 10 min in a Hettich Rotanta/AP centrifuge (i.e., 2,800 rpm) at RT. After gentle resuspension of the pellet in the same volume of fresh Watson buffer containing 5 ng/mL PGI2, the suspension is centrifuged at 1,350 g (2,800 rpm) for 10 min at RT again. The final platelet pellet is resuspended in Watson buffer to give approx. 400,000±50,000 platelets/[…]. • 3. Watson buffer:
134 mM NaCl, 2.9 mM KCl, 12 mM NaHCO3, 0.34 mM Na2HPO4.2H2O, 1 mM MgCl2.6H2O, 5 mM Glucose and 5 mM HEPES in MQ H2O. The pH is adjusted to 7.4 with 1 M NaOH. • 4. Prostaglandin I2 (Sigma, P6188 powder):
The PGI2 stock solution of 1 mg/mL in 1 M KOH is stored in aliquots of 100 μL at −20° C. Immediately before use, a solution of 5 μg/mL in ice-cold 0.9% NaCl in MQ H2O is prepared. • 5. Human Fibrinogen (Kordia/ERL, art nr: FIB 2 powder):
0.5 g fibrinogen powder is dissolved in 50 mL MQ H2O under vacuum. This stock solution is stored in aliquots of 1 mL at −20° C. Before use, a solution of 0.5 mg/mL in saline is prepared.
Before use, a solution of 50 μM TRAP in 0.9% NaCl in MQ H2O is prepared. For each test, a fresh solution is made.
• 1. Sysmex cell counter model KX-21 • 2. Labsystems iEMS reader MF with a 405 nm filter, an orbital shaker set at 1,000 rpm and a constant temperature of 37° C. Absorptions are measured with the Labsystems iEMS program. • 3. Blood collection system 600 mL with needle, art nr P4203 (NPBI) • 4. 96 wells micro plates (Greiner Labortechnik) flat-bottom
Procedure: The WPL concentration is counted in a Sysmex blood cell counter and the suspension is diluted with Watson buffer to obtain a concentration of 400,000±50,000 plt/μL. Before use, WPL is allowed to stabilize at room temperature for at least 20 min but not longer than 3-4 hours.
TRAP-induced aggregation: 150 μL WPL is pipetted into a well of a micro plate. 15 μL test compound or vehicle and 15 μL fibrinogen solution is added and the micro plate is placed in the micro plate reader at 37° C. Then, the optical density (OD) is measured at 405 nm and after shaking for 2 min in the reader, the OD405 is measured again to verify the stability of the platelets (absence of spontaneous platelet aggregation). 20 μL of 50 μM TRAP is added and the OD405 is kinetically measured every min for 14 min at 405 nm. Between two measurements, the plate is shaking for 40 seconds at 1,000 rpm (FIG. 1). For determination of the IC50 of a test compound, each test compound is investigated in at least 2 experiments using WPL from different volunteers.
Evaluation of response: The mean OD of each concentration (including vehicle) is calculated at t=0 min and t=10 min. The percentage inhibition at each concentration is calculated using the formula: […]

Setting [3] is: 5 μM ADP, human PRP, mean of n experiments, entries marked b measured with a Chronolog aggregometer, others with micro plate reader, read-out: Inhibition of ADP-induced (5 μM) human platelet aggregation (IC50), mean.
Setting [4] is: 5 μM TRAP, washed human platelets, mean of n experiments, entries marked b measured with a Chronolog aggregometer, others with micro plate reader, read-out: Inhibition of TRAP (5 μM)-induced human platelet aggregation (IC50), mean.

Read-outs that look alike come from different tables or passages of the source.

Take `CC(C)(C)OC(=O)COCCOCCOCCOCCNC(=O)[C@H](CC(=O)O)NC(=O)CCC(=O)Nc1ccc(C(=N)N)cc1` [III, tert-Butyl N-{(4-benzamidino)-succinamyl}-L-aspartyl-15-aza-3,6,9,12-tetraoxa-pentadecanoate]: the results for the half-maximal inhibitory concentration (IC50) in assay [1] (setting [3]) and in assay [2] (setting [4]) were 380 nM and 250 nM, respectively.
Consider `CC(C)(C)OC(=O)COCCOCCOCCOCCNC(=O)[C@H](Cc1ccccc1)NC(=O)[C@H](CC(=O)O)NC(=O)[C@@H]1CCCN(C(=O)CCC2CCNCC2)C1` [IX, tert-Butyl N-{[N-3-(4-piperidinepropionyl)-(R)-(−)-nipecotyl]-L-aspartyl-L-phenylalanyl}-15-aza-3,6,9,12-tetraoxa-pentadecanoate], for which, in assay [1] (setting [3]), the half-maximal inhibitory concentration (IC50) worked out at 1180 nM.
Turning to `O=C(O)CCNC(=O)[C@@H]1CCCN(C(=O)CCC2CCNCC2)C1` [XX, reference compound], the 50% inhibitory concentration (IC50) in assay [1] (setting [3]) was determined as 310 nM; in assay [2] (setting [4]), 380 nM.
The matching figures for `CC(C)(C)OC(=O)COCCOCCOCCOCCNC(=O)[C@H](CC(=O)O)NC(=O)[C@@H]1CCCN(C(=O)CCC2CCNCC2)C1` [Compound VII, tert-Butyl N-{[N-3-(4-piperidinepropionyl)-(R)-(−)-nipecotyl]-L-aspartyl}-15-aza-3,6,9,12-tetraoxa-pentadecanoate]: 380 nM and 270 nM.
The like results for `CC(C)(C)OC(=O)COCCOCCOCCOCCNC(=O)[C@H](Cc1ccccc1)NC(=O)[C@H](CC(=O)O)NC(=O)CCNC(=O)c1ccc(C(=N)N)cc1` [Compound I, tert-Butyl({N-(4-amidinobenzoyl)-β-alanyl}-L-aspartyl-L-phenylalanyl)-15-aza-3,6,9,12-tetraoxa-pentadecanoate] were, in that order, 610 nM and 220 nM.
For the compound `CCCCS(=O)(=O)N[C@@H](Cc1ccc(OCCCCC2CCNCC2)cc1)C(=O)O` [tirofiban, reference compound], the IC50 in assay [1] (Homo sapiens, read-out: IC50, inhibition of human platelet aggregation induced by 5 μM ADP (reference compound)) was in the range of 30 to 60 nM; in assay [2] (Homo sapiens, read-out: IC50, inhibition of human platelet aggregation induced by 5 μM TRAP (reference compound)), 30 to 60 nM.
Regarding `N=C(N)c1ccc(NC(=O)CCC(=O)N[C@@H](CC(=O)O)C(=O)O)cc1` [XVIII, reference compound], the IC50 in assay [1] (setting [3]) worked out at 2010 nM; in assay [2] (setting [4]), 1190 nM.
The like results for `CC(C)(C)OC(=O)COCCOCCOCCOCCNC(=O)[C@H](Cc1ccccc1)NC(=O)[C@H](CC(=O)O)NC(=O)CCC(=O)Nc1ccc(C(=N)N)cc1` [Compound IV, tert-Butyl N-{(4-benzamidino)-succinamyl}-L-aspartyl-L-phenylalanyl-15-aza-3,6,9,12-tetraoxa-pentadecanoate] were, in that order, 350 nM and 120 nM.
With `O=C(O)C[C@H](NC(=O)[C@@H]1CCCN(C(=O)CCC2CCNCC2)C1)C(=O)O` [Compound VI, {N-3-[4-piperidinepropionyl]-(R)-(−)-nipecotyl}-L-aspartate], the half-maximal inhibitory concentration (IC50) in assay [1] (setting [3]) amounted to 22600 nM; in assay [2] (setting [4]) it was 6290 nM.

The record behind these values is patent US7576071B2, “Antithrombotic compound” (sanofi-aventis, priority 2004, dated 2009).
